The results in this text go back to PubChem BioAssay (NCI).

Where “and” joins values, the source holds several entries; their conditions need not be identical. Equal entries are not always repeated.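 Results reflect a 48-hour exposure of cells in 96-well plates to compound at five concentrations. Abbreviation: GI50, concentration required for 50% inhibition of growth. The concentration for full growth arrest is given as TGI.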 A value given as a limit tells only on which side of the number the result lay.

What all share (assay): DTP human tumour cell line panel, 48 h
Assay [1] has as its system HCT-15 colon.
The subject of assay [2] is SN12C renal.
Assay [3] relates to LOX IMVI melanoma.
The subject of assay [4] is NCI-H226 lung.
The test system of assay [5] is OVCAR-4 ovarian.
The subject of assay [6] is SW-620 colon.
For assay [7], the system named is SK-MEL-2 melanoma.
For assay [8], the system named is MOLT-4 leukemia.
Assay [9] has as its system UACC-62 melanoma.
Assay [10] relates to IGROV1 ovarian.

Turning to `Cn1c(O)c(C=N)c(=O)n(C)c1=O`, the TGI in assay [1], in assay [2], in assay [3], in assay [4], in assay [5] and in assay [6] was above 100 µM each time. In addition, the TGI in assay [7] and in [8] was above 100 µM in each case.

Regarding `Clc1cccc(Cn2cc(Cc3cn(Cc4cccc(Cl)c4)c4ccccc34)c3ccccc32)c1`, the GI50 in assay [1] was above 100 µM; in [2], above 100 µM; in [3] it was 33.3 µM; in assay [4], 10.1 µM; in assay [5], above 100 µM; in [6], above 100 µM. The GI50 is above 100 µM in assay [7], above 100 µM in assay [8], above 100 µM in [9] and 32 µM in assay [10]. The TGI is above 100 µM in assay [1]; above 100 µM in [2]; above 100 µM in [3]; 59 µM in assay [4]; above 100 µM in assay [5]; above 100 µM in assay [6]. The TGI in assay [7], in assay [8], in assay [9] and in assay [10] was above 100 µM throughout.

In the case of `NC(=O)c1ncn(C2OC(CO)C(O)C2O)n1` (configuration not stated), the GI50 in assay [1] was 38.4 µM; in assay [2] it was 85 µM; in assay [3], 53.6 µM; in [4] it was above 100 µM; in assay [5], above 100 µM; in [6], 22.8 µM. Besides, the GI50 in assay [7] was above 100 µM; in assay [8] it was 52.9 µM; in [9] it was above 100 µM; in assay [10] it was above 100 µM. Also, the TGI in [1], in assay [2], in assay [3], in assay [4], in assay [5] and in assay [6] was above 100 µM each time. For the same compound, the TGI in assay [7], in [8], in assay [9] and in [10] was above 100 µM in each case.

`Nc1ccn(C2OC(CO[P+](=O)OC3C(CO[P+](=O)OC4C(CO[P+](=O)OC5C(CO[P+](=O)OC6C(CO[P+](=O)OC7C(CO[P+](=O)OC8C(CO[P+](=O)OC9C(CO[P+](=O)OC%10C(CO[P+](=O)OC%11C(CO)OC(n%12ccc(N)nc%12=O)C%11(F)F)OC(n%11ccc(N)nc%11=O)C%10(F)F)OC(n%10ccc(N)nc%10=O)C9(F)F)OC(n9ccc(N)nc9=O)C8(F)F)OC(n8ccc(N)nc8=O)C7(F)F)OC(n7ccc(N)nc7=O)C6(F)F)OC(n6ccc(N)nc6=O)C5(F)F)OC(n5ccc(N)nc5=O)C4(F)F)OC(n4ccc(N)nc4=O)C3(F)F)C(O)C2(F)F)c(=O)n1` (configuration not stated): the GI50 in assay [1] was 0.704 µM; in assay [4] it was 18.3 µM; in [5], above 100 µM; in assay [6], 0.168 µM; in [7] it was 35 µM; in assay [10], above 100 µM. Besides, the concentration for total growth inhibition (TGI) in assay [3], in assay [4], in assay [5], in assay [6] and in assay [10] was above 100 µM in each case.

For `CCN(CC)CC(O)CNc1ccc(NCC(O)CCl)c2c1C(=O)c1ccccc1C2=O` (configuration not stated), the TGI in assay [1] came out at 19.9 µM; in assay [2], 19.7 µM; in assay [3], 2.17 µM; in assay [4], 25 µM; in assay [5], 16.1 µM; in assay [6] it was 14.4 µM. The TGI in [7] was determined as 26.2 µM; in assay [8] it was 8.82 µM; in assay [9] it was 29.2 µM; in assay [10], 25.5 µM.

For the compound `COc1cc2c3c(n(CCCN=[N+]=[N-])c(=O)c2cc1OC)-c1ccc(N)cc1C3=O`, the GI50 was 0.378 µM in assay [1]; 0.282 µM in [2]; 0.0923 µM in [3]; 0.249 µM in assay [4]; 0.608 µM in assay [5]; 0.203 µM in [6]. For the same compound, the GI50 is 0.622 µM in assay [7], 0.0731 µM in assay [8], 0.082 µM in assay [9] and 0.153 µM in assay [10]. Also, the TGI in [1] was 2.46 µM; in [2], above 27.1 µM; in [3] it was 0.466 µM; in assay [4], 1.16 µM; in assay [5], 2.59 µM; in assay [6], 3.69 µM. For the same compound, the TGI worked out at 1.55 µM in assay [7], 1.46 µM in assay [8], 0.451 µM in assay [9] and 0.637 µM in [10].

Consider `CCN(CC)CCC(CNc1c2ccc([N+](=O)[O-])cc2nc2cc(OC)c(OC)cc12)c1ccccc1` (configuration not stated), for which the GI50 in assay [1] is 0.738 µM and 1.03 µM; in [2], 0.229 µM and 0.218 µM; in assay [3] it was 0.568 µM and 0.527 µM; in assay [4] it was 0.26 µM and 0.329 µM; in assay [5], 0.271 µM and 0.228 µM; in assay [6], 0.145 µM and 0.0727 µM. The GI50 was 0.229 µM and 0.0816 µM in [7]; 0.317 µM and 0.444 µM in assay [8]; 0.542 µM and 0.696 µM in assay [9]; 0.405 µM and 0.29 µM in [10]. For the same compound, the TGI in [1] is 2.14 µM and 3.1 µM; in [2], 1.22 µM and 1.49 µM; in assay [3], 1.86 µM; in assay [4] it was 0.869 µM and 1.47 µM; in assay [5], 1.03 µM and 0.863 µM; in assay [6], 1.1 µM and 0.763 µM. Further, the TGI is 0.609 µM and 0.253 µM in assay [7]; 2.41 µM and 5.93 µM in assay [8]; 1.91 µM and 2.01 µM in assay [9]; 1.66 µM and 1.02 µM in assay [10].

Take `COC(=O)C1=C(C(=O)Nc2cccnc2)C2OC1(C(Cc1ccccc1)Oc1ccccc1)C1OC21` (configuration not stated): the GI50 in assay [2] was 3.67 µM; in [3] it was 1.83 µM; in assay [4] it was 1.92 µM; in [5], 2.05 µM; in assay [6], 1.69 µM; in [7], 12.9 µM. Moreover, the figures for the GI50 in [8], in [9] and in assay [10] were 1.75 µM, 3.23 µM and 9.17 µM, respectively. Besides, the TGI in assay [2] turned out to be 14.2 µM; in [3], 3.68 µM; in assay [4], 4.12 µM; in assay [5] it was 4.66 µM; in assay [6], 3.58 µM; in [7] it was 25.9 µM. Also, the figures for the total growth inhibition concentration (TGI) in assay [8], in assay [9] and in [10] were 5.2 µM, 13.1 µM and 25.8 µM, respectively.
